Measurements from publication PMC10700347, “Semisynthesis of 5-O-ester derivatives of renieramycin T and their cytotoxicity against non-small-cell lung cancer cell lines” (Scientific Reports, 2023).
Like-named read-outs stand apart in the source and are kept apart here.

Experiments:
[1] = test system: H460 non-small-cell lung cancer cell line; experiment: cells; assay type: cell-based; details: Homo sapiens, NCI-H460, H460, MTT
Method: (§1) The in vitro cytotoxicity of all the semisynthesized esters and their precursors against H292 and H460 human NSCLC cell lines was analyzed based on the mitochondrial dehydrogenase activity via the MTT assay[43] (Table 1). The compounds were tested at doses of 1–250 nM. Cisplatin and doxorubicin, which are the standard chemotherapeutic drugs for the treatment of NSCLC, were used as positive controls. […] However, the extended use of 1 is limited by the concerns for unwanted necrosis, which is an unprogrammed form of cell death caused by the presence of two quinone moieties. […] The IC50 values of the 5-O-ester derivatives 3a, 3b, 3d, 3h, 3i, and 3k were in the same range as the mother compound 1.
(§2) The in vitro cytotoxicity of compounds 3a–3o, 4a, and 4b was determined against the H292 and H460 NSCLC cell lines by the MTT colorimetric assay. Each compound was dissolved in DMSO to prepare a 10 mM stock solution. Both the H292 and H460 cells were cultured in RPMI 1640 medium supplemented with 2 mM L-glutamine, 10% FBS, and 100 units/mL of penicillin–streptomycin at 37 °C under 5% CO2. The NSCLC cells were trypsinized and seeded with a density of 5 × 10^3 cells/well in a 96-well plate, followed by overnight incubation. Serial dilutions of the test compounds ranging from 1 to 250 nM were prepared in the presence of DMSO (< 0.2% v/v). […] After incubation, formazan crystals were solubilized by adding 100 µL of DMSO, and their absorbance was measured at 570 nm by a spectrophotometric microtiter plate reader (PerkinElmer Victor 3 1420 Multilabel Plate Counter). Cell viability was calculated as the percentage of nontreated control cells. The mean IC50 values were obtained from three independent experiments. Each experiment was conducted in triplicate with at least five concentrations of the tested compounds. The GraphPad Prism software (version 5) was used to calculate the average IC50 and standard deviation (S.D.) values for each experiment. Cisplatin and doxorubicin were used as the positive controls, while 0.2% DMSO served as the negative control.

[2] = test system: H292 non-small-cell lung cancer cell line; experiment: cells; assay type: cell-based; details: Homo sapiens, NCI-H292, H292, MTT
Method: as §1, §2

[3] = test system: human keratinocyte (HaCaT) cell line; experiment: MTT cell viability on normal cell line HaCaT; assay type: cell-based; details: Homo sapiens, 24 h, read-out: IC50 ± S.D. HaCaT
Method: (§3) DP and BEAS-2B were seeded into 96-well plates at densities of 1 × 10^4 cells per well, while HaCaT cells were seeded at densities of 5 × 10^3 cells per well. The cells were allowed to adhere for 24 h. Subsequently, the cells were treated with various concentrations of compounds 3a–3o, 4a, and 4b at 72 h for DP cells and at 24 h for HaCaT and BEAS-2B cells. After the treatment period, cells were incubated with 0.5 mg/ml of MTT for 2 h. The resulting MTT product was measured at 570 nm using a spectrophotometric microplate reader. Cell viability was calculated by comparing the optical density (OD) measurements to those of the untreated control, and the results were expressed as a percentage.

H460 NSCLC cells [4] = experiment: Annexin V-FITC/PI double staining flow cytometry, H460; assay type: cell-based, human; details: H460, 7 h; statement for 1 at 20 µM
Method: (§4) Apoptosis cell death was investigated following the manufacturer's protocol (ImmunoTools, Friesoythe, Germany) using FITC–labeled Annexin V/PI. Treated cells was cultured overnight in 24-well plates at a density of 5 × 10^4 cells/well. Subsequently, cells were treated with various concentrations of 1, and 3b (0, 0.1, 1, 5, 10, and 20 µM) for 7 h. After treatment, cells were collected, washed with cold PBS, and then suspended in binding buffer. Each cell suspension was stained with 2.5 µL of annexin V-FITC and 1 µL of PI. The mixture was vortexed, then incubated for 15 min at room temperature. Guava easyCyte flow cytometer (EMD Millipore, Hayward, CA, USA) was utilized to detect live, apoptotic, and necrotic cells. The modes of cell death were classified as necrotic (PI+), and apoptotic cell death, divided into early apoptotic (PI (-) Annexin-V (+)) and late apoptotic (PI (+) Annexin-V (+)).

H292 NSCLC cells [5] = experiment: Hoechst 33342/PI nuclear co-staining apoptosis and accidental necrosis assay, H292; assay type: cell-based, human; details: cisplatin-resistant H292, 7 h, 0–20 µM; statement for 1 at the highest concentration (20 µM)
Method: (§5) The anti-proliferative activity of compounds 1 and 3b against H292 and H460 cells were assessed across a range of concentrations (0–20 µM) under treatment at 10 and 24 h. […] The cytotoxic effect of 3b was closely resembled that of the parental compound 1 after 24 h treatment. According to their cytotoxic profiles at short treatment duration, the NSCLC cell lines were treated with various concentrations (0, 0.1, 1, 5, 10, and 20 µM) of compounds 1 and 3b, followed by Hoechst 33342 and PI staining to visualize morphological changes by fluorescence microscopy (Fig. 4C–F). The bright blue fluorescence of Hoechst 33342 indicated apoptosis, characterized by DNA condensation and fragmentation. In contrast, the red fluorescence emitted by propidium iodide (PI) indicated necrotic cell death. The percentage of apoptotic and necrotic cells was calculated based on the stained image.
(§6) NSCLC cells (H292 and H460) were seeded into a 96-well plate at a density of 1 × 10^4 cells/well for 24 h. Subsequently, the cells were treated with several concentrations of compounds 1 and 3b (0–20 µM) for 7 h. […] Visualization and imaging of the stained cells were carried out using a fluorescence microscope (Nikon ECLIPSE Ts2, Tokyo, Japan). […] The percentage of cell death was analyzed and reported.

H292 NSCLC cells [6] = experiment: Annexin V-FITC/PI double staining flow cytometry, H292; assay type: cell-based, human; details: H292, 7 h; statement for 1 at 20 µM
Method: as §4

[7] = test system: dermal papilla (DP) cell line; experiment: MTT cell viability on normal cell line DP; assay type: cell-based; details: 72 h
Method: as §3

[8] = test system: non-tumorigenic bronchial epithelial (BEAS-2B) cell line; experiment: MTT cell viability on normal cell line BEAS-2B; assay type: cell-based; details: Homo sapiens, BEAS-2B normal cell line, 24 h, read-out: IC50 ± S.D. BEAS-2B
Method: as §3

H460 NSCLC cells [9] = experiment: Hoechst 33342/PI nuclear co-staining apoptosis and accidental necrosis assay, H460; assay type: cell-based, human; details: cisplatin-sensitive H460, 7 h, 0–20 µM
Method: as §5, §6

[10] = 10 h, 0–20 µM, read-out: IC50 ± S.D. H460 10 h
[11] = 24 h, 0–20 µM, read-out: IC50 ± S.D. H460 24 h
[12] = 72 h, read-out: IC50 ± S.D. H460
[13] = 10 h, 0–20 µM, read-out: IC50 ± S.D. H292 10 h
[14] = 24 h, 0–20 µM, read-out: IC50 ± S.D. H292 24 h
[15] = 72 h, read-out: IC50 ± S.D. H292

Row | SMILES | IC50 [1, 10] | IC50 [1, 11] | IC50 [1, 12] | IC50 [2, 13] | IC50 [2, 14] | IC50 [2, 15] | IC50 [3] | Mode of cell death by annexin V-FITC/PI flow cytometric analysis (H460 NSCLC cells [4]) | Mode of cell death (apoptosis / accidental necrosis) by Hoechst 33342/PI staining (H292 NSCLC cells [5]) | Mode of cell death by annexin V-FITC/PI flow cytometric analysis (H292 NSCLC cells [6]) | IC50 [7] | IC50 [8] | Mode of cell death (apoptosis / accidental necrosis) by Hoechst 33342/PI staining (H460 NSCLC cells [9])
1 | C/C=C(/C)C(=O)OC[C@H]1C2=C(C[C@H]3[C@H]4C5=C(C[C@@H]([C@H](C#N)N13)N4C)C(=O)C(C)=C(OC)C5=O)C(=O)C(C)=C(OC)C2=O [Compound 1, Renieramycin M] | 12 ± 2.73 µM | 4.13 ± 1 µM | 0.0356 ± 0.00182 µM | 4.92 ± 3.14 µM | 3.24 ± 0.8 µM | 0.0344 ± 0.0017 µM | 0.00801 ± 0.00053 µM | necrotic cell death in both H292 and H460 cell lines in conjugation with late apoptosis | induced both apoptosis and accidental necrosis | necrotic cell death in both H292 and H460 cell lines in conjugation with late apoptosis | 0.00707 ± 0.0015 µM | 0.075 ± 0.00977 µM | unwanted necrosis was observed in a dosed-dependent manner
2 | C/C=C(/C)C(=O)OC[C@H]1c2c(c(OC(=O)CC)c(C)c3c2OCO3)C[C@H]2[C@H]3C4=C(C[C@@H]([C@H](C#N)N12)N3C)C(=O)C(C)=C(OC)C4=O [Compound 3b, 5-O-(3-propanoyl) ester of renieramycin T] | 18.8 ± 0.4 µM | 7.32 ± 0.52 µM | 0.0339 ± 0.00195 µM | 17.6 ± 6.58 µM | 4.14 ± 0.84 µM | 0.0334 ± 0.00087 µM | 0.0337 ± 0.00943 µM | early apoptosis with minimal necrosis | morphological apoptosis with no detectable necrotic cells | early apoptosis with minimal necrosis | 0.0236 ± 0.00065 µM | 0.0902 ± 0.00949 µM | induced apoptosis with minimal necrosis
